Activity calls are given as the source filed them. The rule behind the calls is not given here.
How the values were obtained:
[1] = (§1) Neuroprotective activity against glutamate-induced cell death in rat PC12 cells assessed as cell viability at 0.1 uM after 24 hrs by MTT assay; assay type: functional; conditions: PC-12, 24 h, read-out: Activity
[2] = (§2) Neuroprotective activity against glutamate-induced cell death in rat PC12 cells assessed as cell viability at 1 uM after 24 hrs by MTT assay; assay type: functional; conditions: PC-12, 24 h, read-out: Activity
[3] = (§3) Neuroprotective activity against glutamate-induced cell death in rat PC12 cells assessed as cell viability at 10 uM after 24 hrs by MTT assay; assay type: functional; conditions: PC-12, 24 h, read-out: Activity
PC-12 [4] = assay: as §1; assay type: functional
PC-12 [5] = assay: as §2; assay type: functional
PC-12 [6] = assay: as §3; assay type: functional
PC-12 [7] = assay: Neuroprotective activity against glutamate-induced apoptosis in rat PC12 cells after 24 hrs by hoechst 33342 and propidium iodide double staining based fluorescence analysis; assay type: functional, cell-based
PC-12 [8] = assay: Neuroprotective activity against glutamate-induced apoptosis in rat PC12 cells at 0.1 uM after 24 hrs by hoechst 33342 and propidium iodide double staining based fluorescence analysis (reference value: 43.97 +/- 2.69%); assay type: functional
PC-12 [9] = assay: Neuroprotective activity against glutamate-induced cell death in rat PC12 cells assessed as cell viability after 24 hrs by MTT assay; assay type: functional, cell-based
PC-12 [10] = assay: Neuroprotective activity against glutamate-induced apoptosis in rat PC12 cells assessed as decrease in caspase-3 level after 24 hrs by western blot analysis; assay type: functional, cell-based
PC-12 [11] = assay: Neuroprotective activity against glutamate-induced apoptosis in rat PC12 cells at 1 uM after 24 hrs by hoechst 33342 and propidium iodide double staining based fluorescence analysis (reference value: 43.97 +/- 2.69%); assay type: functional
PC-12 [12] = assay: Neuroprotective activity against glutamate-induced apoptosis in rat PC12 cells at 10 uM after 24 hrs by hoechst 33342 and propidium iodide double staining based fluorescence analysis (reference value: 43.97 +/- 2.69%); assay type: functional
PC-12 [13] = assay: Neuroprotective activity against glutamate-induced apoptosis in rat PC12 cells assessed as procaspase-3 level at 0.1 to 10 uM after 24 hrs by western blot analysis; assay type: functional, cell-based
[14] = Neuroprotective activity against glutamate-induced cell death in rat PC12 cells assessed as cell viability at 90 uM after 24 hrs by MTT assay; assay type: functional; conditions: PC-12, 24 h, read-out: Activity
PC-12 [15] = assay: Neuroprotective activity against glutamate-induced apoptosis in rat PC12 cells assessed as decrease in procaspase-3 level after 24 hrs by western blot analysis; assay type: functional, cell-based

SMILES	viability at 0.1 µM [1] [%]	viability at 1 µM [2] [%]	viability at 10 µM [3] [%]	also measured
COc1ccc(OCC(=O)N2CCN(C(c3ccc(OC)cc3)c3ccc(OC)cc3)CC2)cc1	59.4	80.7	56.7	
O=C(COc1ccc2ccccc2c1)N1CCN(C(c2ccc(F)cc2)c2ccc(F)cc2)CC1				Activity (PC-12 [4]): inactive; Activity (PC-12 [5]): inactive; Activity (PC-12 [6]): inactive
COC(=O)c1ccccc1CN1CCN(C(=O)COc2ccc(Br)cc2)CC1				Activity (PC-12 [4]): inactive; Activity (PC-12 [5]): inactive; Activity (PC-12 [6]): inactive
CCOc1ccccc1CN1CCN(C(=O)COc2ccc3ccccc3c2)CC1	29.8	45.7	59.6	Activity (PC-12 [7]): Dose-dependent effect; Activity (PC-12 [8]): 35.09%; Activity (PC-12 [9]): Dose-dependent effect; Activity (PC-12 [10]): Dose-dependent effect; Activity (PC-12 [11]): 23.73%; Activity (PC-12 [12]): 16.21%; Activity (PC-12 [13]): inactive
COC(=O)c1ccccc1CN1CCN(C(=O)COc2ccccc2C)CC1	6.39	9.55	25.1	
COC(=O)c1ccccc1CN1CCN(C(=O)COc2ccccc2OC)CC1	23.2	32.8	23.1	
COc1ccccc1OCC(=O)N1CCN(C(c2ccc(C)cc2)c2ccc(C)cc2)CC1				Activity (PC-12 [4]): inactive; Activity (PC-12 [5]): inactive; Activity (PC-12 [6]): inactive
COc1ccc(C(c2ccc(OC)cc2)N2CCN(C(=O)COc3ccccc3C)CC2)cc1	2.45	3.75	21.2	
O=C(COc1ccc(Br)cc1)N1CCN(C(c2ccc(Br)cc2)c2ccc(Br)cc2)CC1				Activity (PC-12 [4]): inactive; Activity (PC-12 [5]): inactive; Activity (PC-12 [6]): inactive
COC(=O)c1ccccc1CN1CCN(C(=O)COc2ccc(Cl)cc2)CC1	39.9	5.15	6.36	
COc1ccc(OCC(=O)N2CCN(C(c3ccc(Br)cc3)c3ccc(Br)cc3)CC2)cc1	3.52	7.06	50.3	
COc1ccc(OCC(=O)N2CCN(C(c3ccc(C)cc3)c3ccc(C)cc3)CC2)cc1	21.7	42.3	47.5	
COc1ccccc1OCC(=O)N1CCN(C(c2ccc(Br)cc2)c2ccc(Br)cc2)CC1	45.5	12.8	6.67	
O=C(COc1ccc2ccccc2c1)N1CCN(C(c2ccc(Br)cc2)c2ccc(Br)cc2)CC1	4.06	7.87	30.2	
Cc1ccccc1OCC(=O)N1CCN(C(c2ccc(F)cc2)c2ccc(F)cc2)CC1	7.92	8.7	57	
O=C(COc1ccc(Cl)cc1)N1CCN(C(c2ccc(Br)cc2)c2ccc(Br)cc2)CC1	4.22	8.01	16.7	
Cc1ccc(C(c2ccc(C)cc2)N2CCN(C(=O)COc3ccc(Cl)cc3)CC2)cc1	5.81	9.14	9.2	

SMILES	viability at 0.1 µM [1] [%]	viability at 1 µM [2] [%]	viability at 10 µM [3] [%]	also measured
Cc1ccccc1OCC(=O)N1CCN(Cc2ccc(Br)cc2)CC1	10.2	22.1	20.8	
CC1=NN(c2ccccc2)C(=O)C1 [EDARAVONE]				viability at 90 µM [14]: 33%
O=C(COc1ccc(Br)cc1)N1CCN(Cc2ccc(Br)cc2)CC1				Activity (PC-12 [4]): inactive; Activity (PC-12 [5]): inactive; Activity (PC-12 [6]): inactive
CCOc1ccccc1CN1CCN(C(=O)COc2ccccc2C)CC1	53.3	11.9	8.52	
COc1ccc(C(c2ccc(OC)cc2)N2CCN(C(=O)COc3ccc4ccccc4c3)CC2)cc1	2.55	5.42	25.6	
Cc1ccc(C(c2ccc(C)cc2)N2CCN(C(=O)COc3ccccc3C)CC2)cc1	3.24	4.24	11.3	
O=C(COc1ccc(Br)cc1)N1CCN(C(c2ccc(F)cc2)c2ccc(F)cc2)CC1	26.8	47.6	77.1	Activity (PC-12 [7]): Dose-dependent effect; Activity (PC-12 [8]): 41.83%; Activity (PC-12 [9]): Dose-dependent effect; Activity (PC-12 [10]): Dose-dependent effect; Activity (PC-12 [11]): 32.18%; Activity (PC-12 [12]): 24.65%; Activity (PC-12 [13]): inactive
COc1ccccc1OCC(=O)N1CCN(Cc2ccc(Br)cc2)CC1	38	41	20.8	
CCOc1ccc(CN2CCN(C(=O)COc3ccccc3C)CC2)cc1	35.3	30.6	28.9	
COc1ccc(OCC(=O)N2CCN(C(c3ccc(F)cc3)c3ccc(F)cc3)CC2)cc1	3.1	5.26	80.5	
COC(=O)c1ccccc1CN1CCN(C(=O)COc2ccc(C)cc2)CC1				Activity (PC-12 [4]): inactive; Activity (PC-12 [5]): inactive; Activity (PC-12 [6]): inactive
Cc1ccccc1OCC(=O)N1CCN(C(c2ccc(Br)cc2)c2ccc(Br)cc2)CC1				Activity (PC-12 [4]): inactive; Activity (PC-12 [5]): inactive; Activity (PC-12 [6]): inactive
COc1ccc(/C=C/C(=O)N2CCN(C(c3ccc(F)cc3)c3ccc(F)cc3)CC2)cc1	71	49.7	77.8	
COc1ccccc1OCC(=O)N1CCN(C(c2ccc(F)cc2)c2ccc(F)cc2)CC1	32	45.9	79.7	Activity (PC-12 [7]): Dose-dependent effect; Activity (PC-12 [8]): 42.28%; Activity (PC-12 [9]): Dose-dependent effect; Activity (PC-12 [10]): Dose-dependent effect; Activity (PC-12 [15]): Dose-dependent effect; Activity (PC-12 [11]): 31.04%; Activity (PC-12 [12]): 19.18%
COC(=O)c1ccccc1CN1CCN(C(=O)COc2ccc3ccccc3c2)CC1	25.6	37.4	49.5	Activity (PC-12 [7]): Dose-dependent effect; Activity (PC-12 [8]): 35.67%; Activity (PC-12 [9]): Dose-dependent effect; Activity (PC-12 [10]): Dose-dependent effect; Activity (PC-12 [15]): Dose-dependent effect; Activity (PC-12 [11]): 29.27%; Activity (PC-12 [12]): 21.81%
COC(=O)c1ccccc1CN1CCN(C(=O)COc2ccc(OC)cc2)CC1				Activity (PC-12 [4]): inactive; Activity (PC-12 [5]): inactive; Activity (PC-12 [6]): inactive
Cc1ccc(C(c2ccc(C)cc2)N2CCN(C(=O)COc3ccc4ccccc4c3)CC2)cc1	4.75	5.63	10.3	
